# Data published in ChEMBL document CHEMBL5321294, “Evolution of Slow-Binding Inhibitors Targeting Histone Deacetylase Isoforms” (J Med Chem, 2023).
# Non-standard residues stand in square brackets, D forms with d. Residues, ends and D or L forms follow the SMILES beside them. *: point of attachment. Asu = N[C@@H](CCCCCC(=O)O)C(=O)O; NHOH = ON*
# Assays:
# Histone deacetylase 3 [1] = target: T1, Histone deacetylase 3 (Homo sapiens, UniProt O15379); experiment: Binding affinity to human HDAC3 assessed as binding rate constant (Kon)
# Histone deacetylase 3 [2] = target: T1, Histone deacetylase 3; experiment: Binding affinity to human HDAC3 assessed as dissociation rate constant (Koff)
# Histone deacetylase 1 [3] = target: T2, Histone deacetylase 1 (Homo sapiens, UniProt Q13547); experiment: Binding affinity to human HDAC1 assessed as half life
# Histone deacetylase 2 [4] = target: T3, Histone deacetylase 2 (Homo sapiens, UniProt Q92769); experiment: Binding affinity to human HDAC2 assessed as half life
# Histone deacetylase 3 [5] = target: T1, Histone deacetylase 3; experiment: Binding affinity to human HDAC3 assessed as half life
# Histone deacetylase 2 [6] = target: T3, Histone deacetylase 2; experiment: Binding affinity to human HDAC2 assessed as residence time
# Histone deacetylase 3 [7] = target: T1, Histone deacetylase 3; experiment: Binding affinity to human HDAC3 assessed as residence time
# Homo sapiens [8] = species: Homo sapiens; experiment: Selectivity index, ratio of IC50 for Inhibition of human HDAC3 to IC50 for Inhibition of human HDAC1
# Homo sapiens [9] = species: Homo sapiens; experiment: Selectivity index, ratio of IC50 for Inhibition of human HDAC3 to Inhibition of human IC50 for HDAC2
# Histone deacetylase 8 [10] = target: T4, Histone deacetylase 8 (Homo sapiens, UniProt Q9BY41); experiment: Binding affinity to HDAC8 (unknown origin) assessed as inhibition constant
# T4 sequence (Q9BY41 whole entry): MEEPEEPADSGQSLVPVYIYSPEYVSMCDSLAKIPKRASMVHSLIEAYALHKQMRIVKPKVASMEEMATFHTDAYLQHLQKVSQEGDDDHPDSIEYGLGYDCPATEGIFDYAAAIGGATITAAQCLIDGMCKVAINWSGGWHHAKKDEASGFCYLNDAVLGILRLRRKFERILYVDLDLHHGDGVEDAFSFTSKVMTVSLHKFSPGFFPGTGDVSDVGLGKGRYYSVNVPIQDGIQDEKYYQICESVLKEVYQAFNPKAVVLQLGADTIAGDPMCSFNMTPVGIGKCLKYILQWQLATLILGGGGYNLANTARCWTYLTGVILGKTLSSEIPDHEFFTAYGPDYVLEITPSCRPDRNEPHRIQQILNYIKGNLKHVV
# Histone deacetylase 8 [11] = target: T4, Histone deacetylase 8; experiment: Binding affinity to HDAC8 (unknown origin) assessed as inhibition constant(ki,1)
# Histone deacetylase 3 [12] = target: T1, Histone deacetylase 3; experiment: Binding affinity to HDAC3 (unknown origin) assessed as binding constant(k2)
# Histone deacetylase 3 [13] = target: T1, Histone deacetylase 3; experiment: Binding affinity to HDAC3 (unknown origin) assessed as binding constant(k-2)
# Histone deacetylase 3 [14] = target: T1, Histone deacetylase 3; experiment: Binding affinity to HDAC3 (unknown origin) assessed as residence time
# Histone deacetylase 1 [15] = target: T2, Histone deacetylase 1; experiment: Inhibition of HDAC1 (unknown origin) measured after 1 hrs by fluorescence based assay
# Histone deacetylase 2 [16] = target: T3, Histone deacetylase 2; experiment: Inhibition of HDAC2 (unknown origin) measured after 1 hrs by fluorescence based assay
# Histone deacetylase 3 [17] = target: T1, Histone deacetylase 3; experiment: Inhibition of HDAC3 (unknown origin) measured after 1 hrs by fluorescence based assay
# Histone deacetylase 1 [18] = target: T2, Histone deacetylase 1; experiment: Inhibition of HDAC1 (unknown origin) measured after 24 hrs by fluorescence based assay
# Histone deacetylase 2 [19] = target: T3, Histone deacetylase 2; experiment: Inhibition of HDAC2 (unknown origin) measured after 24 hrs by fluorescence based assay
# Histone deacetylase 3 [20] = target: T1, Histone deacetylase 3; experiment: Inhibition of HDAC3 (unknown origin) measured after 24 hrs by fluorescence based assay
# Histone deacetylase 3 [21] = target: T1, Histone deacetylase 3; experiment: Binding affinity to HDAC3 (unknown origin) assessed as inhibition constant
# Histone deacetylase 3 [22] = target: T1, Histone deacetylase 3; experiment: Binding affinity to HDAC3 (unknown origin) assessed as inhibition constant(ki,1)
# [23] = target: T5, Protein deacetylase HDAC6 (Homo sapiens) (UniProt Q9UBN7); experiment: Binding affinity to recombinant human HDAC6 using Ac-Leu-Gly-Lys(Ac)-AMC as substrate measured after 60 mins assessed as binding constant (k-2) by fluorescence based assay
# T5 sequence (whole entry): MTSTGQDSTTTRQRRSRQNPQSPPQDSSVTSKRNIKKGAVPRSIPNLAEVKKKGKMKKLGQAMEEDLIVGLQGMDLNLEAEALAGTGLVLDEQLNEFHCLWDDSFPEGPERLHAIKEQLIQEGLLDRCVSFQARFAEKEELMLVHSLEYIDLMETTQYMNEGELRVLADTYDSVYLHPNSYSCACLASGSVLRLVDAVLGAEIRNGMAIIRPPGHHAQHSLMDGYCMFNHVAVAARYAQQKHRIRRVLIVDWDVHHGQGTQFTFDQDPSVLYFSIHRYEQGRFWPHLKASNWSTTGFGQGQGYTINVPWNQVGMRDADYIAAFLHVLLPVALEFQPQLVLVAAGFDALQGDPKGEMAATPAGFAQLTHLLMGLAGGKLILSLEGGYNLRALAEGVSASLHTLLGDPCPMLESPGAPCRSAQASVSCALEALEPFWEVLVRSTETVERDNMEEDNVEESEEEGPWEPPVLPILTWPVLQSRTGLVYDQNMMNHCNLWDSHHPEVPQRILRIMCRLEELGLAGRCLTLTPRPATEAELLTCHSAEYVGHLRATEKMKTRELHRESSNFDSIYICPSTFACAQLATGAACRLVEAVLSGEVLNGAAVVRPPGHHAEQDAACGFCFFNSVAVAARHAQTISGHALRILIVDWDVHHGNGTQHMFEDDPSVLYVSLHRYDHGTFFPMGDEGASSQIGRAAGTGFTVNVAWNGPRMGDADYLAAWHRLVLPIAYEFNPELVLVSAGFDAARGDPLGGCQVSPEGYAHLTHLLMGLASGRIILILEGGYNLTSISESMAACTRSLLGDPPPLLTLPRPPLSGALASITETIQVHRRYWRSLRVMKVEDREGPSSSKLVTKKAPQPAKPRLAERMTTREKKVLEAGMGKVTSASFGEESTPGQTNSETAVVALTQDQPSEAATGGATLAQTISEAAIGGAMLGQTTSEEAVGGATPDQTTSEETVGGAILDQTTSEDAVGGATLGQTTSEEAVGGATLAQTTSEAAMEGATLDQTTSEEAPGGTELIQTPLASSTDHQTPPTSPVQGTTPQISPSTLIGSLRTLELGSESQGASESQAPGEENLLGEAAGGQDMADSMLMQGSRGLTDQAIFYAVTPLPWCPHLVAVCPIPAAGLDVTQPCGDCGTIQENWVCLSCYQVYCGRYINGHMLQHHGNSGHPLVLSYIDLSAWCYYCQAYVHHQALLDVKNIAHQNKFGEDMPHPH
# [24] = target: T5, Protein deacetylase HDAC6 (Homo sapiens); experiment: Binding affinity to recombinant human HDAC6 using Ac-Leu-Gly-Lys(Ac)-AMC as substrate measured after 60 mins assessed as binding constant (k2) by fluorescence based assay
# [25] = target: T6, Protein deacetylase HDAC6 (Homo sapiens, UniProt Q9UBN7); experiment: Binding affinity to recombinant human HDAC6 using Ac-Leu-Gly-Lys(Ac)-AMC as substrate measured after 60 mins assessed as inhibition constant (ki,1) by fluorescence based assay
# T6 sequence (Q9UBN7 whole entry): T5 sequence (whole entry)
# [26] = target: T6, Protein deacetylase HDAC6; experiment: Binding affinity to recombinant human HDAC6 using Ac-Leu-Gly-Lys(Ac)-AMC as substrate measured after 60 mins assessed as inhibition constant by fluorescence based assay
# [27] = target: T5, Protein deacetylase HDAC6 (Homo sapiens); experiment: Binding affinity to recombinant human HDAC6 using Ac-Leu-Gly-Lys(Ac)-AMC as substrate assessed as residence time
# Homo sapiens [28] = species: Homo sapiens; experiment: Selectivity ratio of Ki for human HDAC3 using Acetyl-Lys(Ac)-AMC as substrate to Ki for HDAC1 using Acetyl-Lys(Ac)-AMC as substrate
# Histone deacetylase 1 [29] = target: T2, Histone deacetylase 1; experiment: Binding affinity to HDAC1 (unknown origin) assessed as inhibition constant
# Histone deacetylase 3 [30] = target: T1, Histone deacetylase 3; experiment: Binding affinity to human HDAC3 using Acetyl-Lys(Ac)-AMC as substrate assessed as binding constant (k-1)
# Histone deacetylase 1 [31] = target: T2, Histone deacetylase 1
# Histone deacetylase 1 [32] = target: T2, Histone deacetylase 1; remark: listed apart in the source
# Histone deacetylase 1 [33] = target: T2, Histone deacetylase 1; remark: listed apart in the source
# Description: Binding affinity to HDAC1 (unknown origin) using Ac-LGKac-AMC as substrate assessed as half life
# Histone deacetylase 3 [34] = target: T1, Histone deacetylase 3
# Description: Binding affinity to HDAC3 (unknown origin) using Ac-LGKac-AMC as substrate assessed as half life
# Histone deacetylase 1 [35] = target: T2, Histone deacetylase 1; remark: listed apart in the source
# Histone deacetylase 3 [36] = target: T1, Histone deacetylase 3; remark: listed apart in the source
# in vivo = details: C57BL/6, mouse, brain, ip, 25 mg/kg
# Description: Half life in C57BL/6 mouse brain at 25 mg/kg, ip
# Histone deacetylase 2 [37] = target: T3, Histone deacetylase 2
# Description: Binding affinity to HDAC2 (unknown origin) using Ac-LGKac-AMC as substrate assessed as half life
# T2 sequence (Q13547 whole entry): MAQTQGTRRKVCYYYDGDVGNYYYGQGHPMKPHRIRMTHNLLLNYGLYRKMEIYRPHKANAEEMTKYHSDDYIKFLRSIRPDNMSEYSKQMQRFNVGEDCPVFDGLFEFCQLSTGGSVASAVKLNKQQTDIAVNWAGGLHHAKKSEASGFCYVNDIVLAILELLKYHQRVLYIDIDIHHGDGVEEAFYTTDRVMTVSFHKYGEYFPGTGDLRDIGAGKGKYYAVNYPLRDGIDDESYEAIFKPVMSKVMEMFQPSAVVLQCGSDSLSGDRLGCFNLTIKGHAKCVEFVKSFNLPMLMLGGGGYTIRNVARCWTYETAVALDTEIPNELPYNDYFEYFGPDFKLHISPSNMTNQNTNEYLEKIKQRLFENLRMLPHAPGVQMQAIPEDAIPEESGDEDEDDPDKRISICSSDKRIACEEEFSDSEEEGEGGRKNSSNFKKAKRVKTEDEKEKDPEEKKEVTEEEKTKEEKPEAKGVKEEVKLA
# T1 sequence (O15379 whole entry): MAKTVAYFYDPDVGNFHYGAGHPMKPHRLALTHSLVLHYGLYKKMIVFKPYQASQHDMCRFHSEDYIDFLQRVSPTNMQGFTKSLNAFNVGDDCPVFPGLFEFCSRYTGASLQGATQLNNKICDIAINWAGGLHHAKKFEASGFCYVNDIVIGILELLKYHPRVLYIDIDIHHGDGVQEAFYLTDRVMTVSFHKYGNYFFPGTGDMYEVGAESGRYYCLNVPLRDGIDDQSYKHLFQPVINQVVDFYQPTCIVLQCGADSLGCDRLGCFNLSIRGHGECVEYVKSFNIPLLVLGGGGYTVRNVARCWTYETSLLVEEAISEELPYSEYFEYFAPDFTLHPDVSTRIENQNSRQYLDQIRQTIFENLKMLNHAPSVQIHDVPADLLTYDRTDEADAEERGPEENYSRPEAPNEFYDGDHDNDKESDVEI
# T3 sequence (Q92769 whole entry): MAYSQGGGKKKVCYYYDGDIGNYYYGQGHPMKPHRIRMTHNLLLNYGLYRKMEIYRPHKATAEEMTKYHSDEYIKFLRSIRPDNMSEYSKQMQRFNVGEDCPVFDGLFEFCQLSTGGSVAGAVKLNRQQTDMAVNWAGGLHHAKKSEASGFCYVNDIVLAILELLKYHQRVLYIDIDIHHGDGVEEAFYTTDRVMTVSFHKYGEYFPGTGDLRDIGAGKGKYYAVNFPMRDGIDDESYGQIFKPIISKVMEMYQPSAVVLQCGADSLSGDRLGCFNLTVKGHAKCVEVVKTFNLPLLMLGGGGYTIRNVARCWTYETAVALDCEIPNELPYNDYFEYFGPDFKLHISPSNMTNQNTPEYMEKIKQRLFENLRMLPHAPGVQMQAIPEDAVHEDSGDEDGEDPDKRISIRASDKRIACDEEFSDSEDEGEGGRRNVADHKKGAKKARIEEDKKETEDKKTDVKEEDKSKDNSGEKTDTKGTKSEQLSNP
structure (smiles),measurement,setting,value
CC(=O)Nc1ccc(C(=O)Nc2cc(-c3ccncc3)ccc2N)cc1,K,Histone deacetylase 3 [1],16.7 M⁻¹ s⁻¹
same,K,Histone deacetylase 3 [2],0.002 min⁻¹
same,T1/2,Histone deacetylase 1 [3],7.17 h
same,T1/2,Histone deacetylase 2 [4],30 h
same,T1/2,Histone deacetylase 3 [5],11.5 h
same,TIME,Histone deacetylase 2 [6],41.7 h
same,TIME,Histone deacetylase 3 [7],10.4 h
same,Ratio IC50,Homo sapiens [8],1040
same,Ratio IC50,Homo sapiens [9],100
O=C(CCCCCCC(=O)C(F)(F)F)Nc1ccccc1,TIME,Histone deacetylase 2 [6],2.08 h
same,TIME,Histone deacetylase 3 [7],3.33 h
same,Ki,Histone deacetylase 8 [10],~33 nM
same,Ki,Histone deacetylase 8 [11],7300 nM
same,K,Histone deacetylase 3 [12],0.24 min⁻¹
same,K,Histone deacetylase 3 [13],5 10^-3/min
C[C@@H]1NC(=O)[C@H]2CCCN2C(=O)[C@H](CCCCCC(=O)[C@@H]2CO2)NC(=O)[C@@H](C)NC1=O,TIME,Histone deacetylase 3 [14],1.39 h
same,K,Histone deacetylase 3 [12],0.12 min⁻¹
same,K,Histone deacetylase 3 [13],0.012 min⁻¹
NC/C(=C\C(=O)c1ccccc1)c1ccccc1,IC50,Histone deacetylase 1 [15],5960 nM
same,IC50,Histone deacetylase 2 [16],19600 nM
same,IC50,Histone deacetylase 3 [17],> 50000 nM
same,IC50,Histone deacetylase 1 [18],8650 nM
same,IC50,Histone deacetylase 2 [19],26400 nM
same,IC50,Histone deacetylase 3 [20],> 50000 nM
O=C(CCCCC[C@@H]1NC(=O)[C@H]2CCCN2C(=O)[C@H](Cc2ccccc2)NC(=O)[C@H](Cc2ccccc2)NC1=O)NO (cyclo([Asu](NHOH)FF[dP])),Ki,Histone deacetylase 3 [21],0.2 nM
same,TIME,Histone deacetylase 3 [14],4.17 h
same,Ki,Histone deacetylase 3 [22],1.4 nM
same,K,Histone deacetylase 3 [12],0.26 min⁻¹
same,K,Histone deacetylase 3 [13],0.004 min⁻¹
same,K,[23],0.006 min⁻¹
same,K,[24],0.148 min⁻¹
same,Ki,[25],34 nM
same,Ki,[26],~1.2 nM
same,TIME,[27],2.92 h
Nc1ccc(-c2ccccc2)cc1NC(=O)CCCCCC(=O)Nc1ccccc1,Ratio Ki,Homo sapiens [28],350
same,Ki,Histone deacetylase 1 [29],7 nM
same,Ki,Histone deacetylase 3 [21],2500 nM
same,K,Histone deacetylase 3 [30],0.002 min⁻¹
C/C=C1\NC(=O)[C@H]2CSSCC/C=C/[C@H](CC(=O)N[C@H](C(C)C)C(=O)N2)OC(=O)[C@H](C(C)C)NC1=O [ROMIDEPSIN],Ki,Histone deacetylase 1 [31],~0.02 nM
same,Ki,Histone deacetylase 1 [32],0.88 nM
same,T1/2,Histone deacetylase 1 [33],> 0.433 h
same,T1/2,Histone deacetylase 3 [34],> 1670 h
O=C(CCCCCCC(=O)Nc1ccccc1)NO [VORINOSTAT],T1/2,Histone deacetylase 1 [35],< 4 min
same,T1/2,Histone deacetylase 3 [36],< 4 min
same,half-life,in vivo,0.44 h
Cc1[nH]c2ccccc2c1CCNCc1ccc(/C=C/C(=O)NO)cc1,T1/2,Histone deacetylase 2 [37],> 1670 h
same,T1/2,Histone deacetylase 3 [34],> 1.05 h
